From patent US20090142753A1, “Compositions and methods for detecting compounds to treat a neurological disorder” (Caritas St. Elizeth Medical Center of Boston, Inc., priority 2005, published 2009)

Columns and labels:
human DJ-1 promoter [1] = assay: DJ-1 promoter luciferase reporter assay in SH-SY5Y cells stably expressing −1000DJ-Luc; type: cell-based; settings: 24 hours; for DJ-1 promoter-driven luciferase activity normalized to β-galactosidase activity: SH-SY5Y cells stably expressing −1000DJ-Luc, increasing doses; for Luciferase expression directed by the human DJ-1 promoter, fold change relative to untreated: SH-SY5Y −1000DJ-Luc vs 0DJ-Luc, normalized to total protein content (FIG. 6)
From the text: (§1) To develop a cell-based assay system where one can identify agents that transcriptionally activate DJ-1, a plasmid vector (−1000DJ-Luc) was made that expressed a luciferase reporter gene directed by the human DJ-1 promoter containing 1000 base pairs upstream and 65 base pairs downstream sequences (−1000 to +65) of the transcription initiation site (FIG. 1). A19 base pair sequence containing +46 to +65 of the DJ-1 gene was fused to the luciferase gene to generate the control plasmid (0DJLuc). A neomycin resistance gene was inserted into the vectors as a selection marker. Next, human dopaminergic SH-SY5Y neuroblastoma cells were transfected with either −1000DJLuc or 0DJLuc selected for stably transfected clones. A plasmid encoding β-galactosidase gene was co-transfected to serve as an internal control for luciferase expression.
To confirm the stable expression of the reporter genes and to evaluate these cells as devices for drug discovery, stably transfected SH-SY5Y cells were treated with increasing doses of H2O2. This agent has been reported to upregulate DJ-1. See for example Reference 21. Twenty-four hours after treatment, cells were harvested to analyze luciferase and β-galactosidase activities. Toxicity induced by the higher dose H2O2 was corrected by reduced β-galactosidase activities. […] SH-SY5Y cells stably expressing −1000DJ-Luc and a plasmid encoding CMV-β-galactosidase were treated with the indicated amount of H2O2 for 24 hours. Luciferase and β-galactosidase activities were then determined. Because cellular toxicity increases with increasing H2O2 dosages, luciferase activity was normalized to β-galactosidase activity, with the value of untreated sample designated as 100. The values shown represent the average of 2 experiments carried out in triplicate. (P<0.05 by Anova). The Luciferase activity in control cell lines expressing 0DJ-Luc was not affected by H2O2. To further validate the cells as tools for compound screening, a rational approach to selecting candidate compounds that can transactivate DJ-1 gene based on the analysis of the human DJ-1 promoter was taken.
SH-SY5Y cells stably expressing −1000DJ-Luc were treated with increasing doses of TSA (FIG. 3A) or sodium butyrate (FIG. 3B) for 24 hours. Results were analyzed as described in FIG. 2. DJ-1 promoter-driven luciferase activity was then assayed.
A. Plasmids and Chemicals. DJ-1 promoter sequences from −1000 to +65 relative to the transcriptional initiation site was amplified from pDJ-1(1)luc by PCR with Xho I and Hind III sites using the following primers: DJ-1 F, 5′ […] (SEQ ID NO:); DJ-1 R, 5′ […] (SEQ ID NO:). The PCR product was then inserted into pGL3basic vector (Promega), between Xho I and Hind III sites to generate 1000DJ-Luc vector. For 0DJ-Luc, the sequences from +46 to +65 relative to the transcriptional initiation site were inserted between XhoI and Hind III sites instead. To facilitate selection, a neomycin resistant gene directed by the SV40 promoter with BamHI and Xho I linker was inserted between the BamHI and SalI sites of pGL3 basic, with the original SalI site abolished after ligation. pON260 encoding β-galactosidase gene was described previously. H2O2, Trichostatin A (TSA), and sodium butyrate were obtained from Sigma.
B. Cells and Transfection. The human neuroblastoma cell line SH-SY5Y was plated in 6 well dish at 70% confluency and co-transfected with 150 ng of pON260 and 25 fmol of −1000DJ-Luc or 0DJ-Luc per well with Transfectin reagent (Bio-Rad). 24 hours after transfection, cells were re-plated in 10 cm dishes and cultured in medium with 800 μg/ml of Geneticin (G418, Invitrogen). Three days later, cells were grown in medium containing 400 μg/ml of Geneticin. Surviving clones were cultured, and expanded, and subjected to analysis.
C. Luciferase and β-galactosidase Assays. Cells were treated with the indicated doses of H2O2, TSA or sodium butyrate for 24 hours before being lysed in reporter lysis buffer (Promega). […]

[2] = tested on: 0DJ-Luc control plasmid (+46 to +65 of the DJ-1 gene); assay: Luciferase activity in control cell lines expressing 0DJ-Luc; type: cell-based, human; settings: SH-SY5Y 0DJ-Luc cells, 24 hours
From the text: as §1
To confirm the stable expression of the reporter genes and to evaluate these cells as devices for drug discovery, stably transfected SH-SY5Y cells were treated with increasing doses of H2O2. This agent has been reported to upregulate DJ-1. See for example Reference 21. Twenty-four hours after treatment, cells were harvested to analyze luciferase and β-galactosidase activities. […] Luciferase and β-galactosidase activities were then determined. […]
C. […] Luciferase and β-galactosidase activities were determined using assay kits following manufacturer's protocol (Promega).

human DJ-1 promoter [3] = assay: DJ-1 luciferase assay in 96-well high throughput format; type: cell-based; settings: 1000DJ-Luc SH-SY5Y cells, 96-well format, 5 μM, 24 hours, N=12
Description: FIG. 8 is a graph showing the results of a DJ-1 luciferase assay configured as a high throughput screen. Equal numbers of SH-SY5Y cells stably expressing the 1000DJ-Luc construct were plated in replicate (N=12) with 5 μM pergolide, bromocriptine or SAHA for 24 hours and then assayed for luciferase activity. The assay produced a Z′ value of 0.790 using SAHA as the positive and bromocriptine as the negative control.
The assay described above was carried out in a 96-well format. Twelve replicate samples of 1000DJ-Luc cells were each treated with pergolide or bromocriptine, which served as negative controls, or with SAHA, a compound known to increase DJ-1 expression. 5 μM of each compound was added to the cells in a 30 μl volume. Cells were lysed in 100 μl/well of passive lysis buffer, and 20 μl aliquots of the cell lysates were then used for a luciferase assay. Bromocriptine and pergolide are dopamine receptor agonists used for the treatment of motor symptoms in Parkinson's disease. […] In fact, levels of luciferase activity observed with these compounds were very similar to levels present in untreated control cells. […] A Z′ value was calculated using bromocriptine as the negative control. […] See “A Simple Statistical Parameter for Use in Evaluation and Validation of High Throughput Screening Assays” Zhang J H, Chung T D, Oldenburg K R, J Biomol Screen. 1999; 4(2):67-73.

DJ-1 protein [4] = assay: Western blot of endogenous DJ-1 protein in SH-SY5Y cells; type: cell-based, human; settings: for Total endogenous DJ-1 protein levels: SH-SY5Y cells stably expressing −1000DJ-Luc, 24 hours, Western blot (FIG. 4); for DJ-1 protein levels: SH-SY5Y cells, TSA 0, 50, 100 ng/ml, sodium butyrate 0, 2.5, 5, 10 mM (FIG. 6C)
Description: SHSY5Y cells stably expressing −1000DJ-Luc were treated with TSA or sodium butyrate for 24 hours. Total proteins were then extracted and analyzed by SDS-PAGE. After transfer, the membrane was first probed with a mouse monoclonal anti-DJ-1 antibody (1:1000) to reveal DJ-1 expression (Top panel). The membrane was then stripped and re-probed with a goat polyclonal anti-actin (1:1000). Therefore, and without wishing to be bound to theory, it is believed that by activating an anti-oxidative and neuroprotective protein DJ-1, HDAC inhibitors may prevent neuronal cell death in Parkinson disease or other neurodegenerative diseases.
SHSY5Y cells stably expressing −1000DJ-Luc were treated with TSA or sodium butyrate for 24 hours. Total proteins were extracted and analyzed by SDS-PAGE. After transfer, the membrane was first probed with a mouse monoclonal anti-DJ-1 antibody (1:1000) to reveal DJ-1 expression (Top panel). The membrane was then striped and re-probed with a goat polyclonal anti-actin (1:1000).
(§2) SH-SY5Y cells (FIG. 6C), human primary neuronal cultures containing cortical neurons and glia (FIG. 6D), or mouse embryonic stem cells (FIG. 6D) were treated with increasing doses of TSA (0, 50, or 100 ng/ml) and sodium butyrate (0, 2.5, 5, or 10 mM). The cells were then lysed. The protein concentration of each sample was determined using a Protein DC assay (Bio-Rad). Equal amount of proteins (30-40 μg) were resolved by 4-20% Tris-glycine SDS-PAGE in each experiment. Proteins were transferred onto nitrocellulose membranes, and probed with antibodies against DJ-1 (Stressgen) or β-actin (Santa Cruz). DJ-1 protein was then visualized using chemiluminescent detection, ECL WESTERN BLOTTING DETECTION SYSTEM (Amersham, Piscataway, N.J.), according to the manufacturer's instructions.
Human SH-SY5Y cells, a primary neuronal culture containing dopaminergic neurons and glia, or mouse embryonic stem cells were treated with selected HDAC inhibitors for 24 hours. Cells were then lysed in RIPA-DOC buffer (50 mM Tris, pH 7.2; 150 mM NaCl; 1% Triton-X100, 1% deoxycholate and 0.1% SDS) with 1× fresh protease inhibitor cocktail. For analysis of DJ-1 protein levels in mouse brains, C57BL6 mice were injected intraperitoneally with sodium butyrate (1200 mg/kg) or vehicle (PBS) daily for 14 days. Mice were euthanized and the cortical and midbrain tissues were collected, and snap frozen in liquid nitrogen. Tissues were disrupted in RIPA-DOC buffer with 1× protease inhibitor using Dounce homogenizers. Protein concentration of each sample was determined using Protein DC assay (Bio-Rad). Equal amounts of proteins (30-40 μg) were resolved by 4-20% Tris-glycine SDS-PAGE in each experiment. […]

DJ-1 protein [5] = assay: Western blot of DJ-1 protein in human primary neuronal cultures; type: cell-based; settings: human primary neuronal cultures containing cortical neurons and glia, increasing doses (FIG. 6D)
Description: as §2
(§3) Human SH-SY5Y cells, a primary neuronal culture containing dopaminergic neurons and glia, or mouse embryonic stem cells were treated with selected HDAC inhibitors for 24 hours. Cells were then lysed in RIPA-DOC buffer (50 mM Tris, pH 7.2; 150 mM NaCl; 1% Triton-X100, 1% deoxycholate and 0.1% SDS) with 1× fresh protease inhibitor cocktail. For analysis of DJ-1 protein levels in mouse brains, C57BL6 mice were injected intraperitoneally with sodium butyrate (1200 mg/kg) or vehicle (PBS) daily for 14 days. […] Protein concentration of each sample was determined using Protein DC assay (Bio-Rad). […]

DJ-1 protein [6] = assay: Western blot of DJ-1 protein in mouse embryonic stem cells; type: cell-based; settings: increasing doses (FIG. 6D)
Description: as §2, §3

DJ-1 protein [7] = assay: DJ-1 protein levels in mouse brain in vivo (immunoblot); settings: C57BL6 mice, 1200 mg/kg intraperitoneally daily for fourteen days, cortical and midbrain tissues
Description: For analysis of DJ-1 protein levels in mouse brains, C57BL6 mice were injected intraperitoneally with vehicle (PBS) or sodium butyrate (1200 mg/kg) daily for fourteen days. Mice were euthanized and the cortical and midbrain tissues were collected, and snap frozen in liquid nitrogen. Tissues were disrupted in RIPA-DOC buffer with 1× protease inhibitor using a Dounce homogenizer. The protein concentration of each sample was determined using a Protein DC assay (Bio-Rad). Equal amounts of proteins (30-40 μg) were resolved by 4-20% Tris-glycine SDS-PAGE in each experiment. Proteins were transferred onto nitrocellulose membranes, and probed with antibodies against DJ-1 (Stressgen) or β-actin (Santa Cruz).
as §3

DJ-1 mRNA = DJ-1 mRNA by quantitative real-time PCR in SH-SY5Y cells; type: cell-based, human; settings: 5 mM, 1-12 hours after treatment
Description: SH-SY5Y cells were treated with 5 mM of sodium butyrate. Cells were then harvested for mRNA one, two, four, eight, and twelve hours after treatment. DJ-1 mRNA levels were quantitated using real-time PCR. DJ-1 mRNA levels were normalized to internal control β-actin mRNA levels.
Total RNA was extracted from the cells treated with sodium butyrate at various time points using Trizol reagent (Invitrogen). The total RNA was then purified with the RNAeasy kit (Qiagen). The quality of the RNA was confirmed using agarose (1%) gel electrophoresis. RNA (1 ng) from each sample was then amplified using Roche LightCycler and Qiagen QuantiTect™ SYBR Green RT-PCR kit according to the manufacturer's instructions. This protocol included: reverse transcription at 50° for 20 minutes, initial activation of Hotstar Taq polymerase at 95° C. for 15 minutes, then 40 cycles of 3-step cycling, including denaturation at 94° C. for 15 seconds; annealing at 58° C. for 20 seconds; extension at 72° C. for 20 sec). A fluorescence detection step was carried out at the end of each cycle. Melting curve analysis (0.1° C. per sec ramping rate, 60-95° C.) was performed with a continuous fluorescence measurement following the 40th cycle. β-actin mRNA was amplified in parallel as an internal control.

SMILES | DJ-1 promoter-driven luciferase activity normalized to β-galactosidase activity (human DJ-1 promoter [1]) | Luciferase activity in control cell lines expressing 0DJ-Luc [2] | Luciferase activity (human DJ-1 promoter [3]) | Luciferase expression directed by the human DJ-1 promoter, fold change relative to untreated (human DJ-1 promoter [1]) | Total endogenous DJ-1 protein levels (DJ-1 protein [4]) | DJ-1 protein levels (DJ-1 protein [4]) | DJ-1 protein levels (DJ-1 protein [5]) | DJ-1 protein levels (DJ-1 protein [6]) | DJ-1 protein levels in mouse brain (DJ-1 protein [7]) | DJ-1 mRNA levels normalized to β-actin mRNA (DJ-1 mRNA)
OO [H2O2] | activated the human DJ-1 promoter in a dose dependent manner | not affected | – | – | – | – | – | – | – | –
O=C(CCCCCCC(=O)Nc1ccccc1)NO [SAHA, suberoylanilide hydroxamic acid] | – | – | substantial levels of luciferase activity | specifically activate luciferase expression | – | – | – | – | – | –
CC(/C=C/C(=O)NO)=C\[C@@H](C)C(=O)c1ccc(N(C)C)cc1 [TSA, Trichostatin A] | significantly activated the DJ-1 promoter | – | – | specifically activate luciferase expression | increased markedly | increased DJ-1 protein levels in a dose dependent fashion | increased DJ-1 protein levels in a dose dependent fashion | increased DJ-1 protein levels in a dose dependent fashion | – | –
CCCN1C[C@H](CSC)C[C@@H]2c3cccc4[nH]cc(c34)C[C@H]21 [pergolide] | – | – | little luciferase activity | – | – | – | – | – | – | –
CCCC(=O)[O-].[Na+] [sodium butyrate] | significantly activated the DJ-1 promoter | – | – | specifically activate luciferase expression | increased markedly | increased DJ-1 protein levels in a dose dependent fashion | increased DJ-1 protein levels in a dose dependent fashion | increased DJ-1 protein levels in a dose dependent fashion | increased DJ-1 protein levels in mouse brain in vivo | transient increase in DJ-1 mRNA levels
